From ChEMBL document CHEMBL1127004, “Structure-based design and pharmacological properties of potent selective and systemically active CCK-B peptidomimetics” (Bioorg Med Chem Lett, 1993) come the findings set out here.

Non-standard residues stand in square brackets, D forms with d. Residues, ends and D or L forms follow the SMILES beside them. *: point of attachment. 1Nal = N[C@@H](Cc1cccc2ccccc12)C(=O)O; Phg = N[C@H](C(=O)O)c1ccccc1; Boc = CC(C)(C)OC(=O)*

The assay addresses T1, Cholecystokinin receptor type A (Cavia porcellus, UniProt Q63931).
T1 sequence (Q63931 whole entry): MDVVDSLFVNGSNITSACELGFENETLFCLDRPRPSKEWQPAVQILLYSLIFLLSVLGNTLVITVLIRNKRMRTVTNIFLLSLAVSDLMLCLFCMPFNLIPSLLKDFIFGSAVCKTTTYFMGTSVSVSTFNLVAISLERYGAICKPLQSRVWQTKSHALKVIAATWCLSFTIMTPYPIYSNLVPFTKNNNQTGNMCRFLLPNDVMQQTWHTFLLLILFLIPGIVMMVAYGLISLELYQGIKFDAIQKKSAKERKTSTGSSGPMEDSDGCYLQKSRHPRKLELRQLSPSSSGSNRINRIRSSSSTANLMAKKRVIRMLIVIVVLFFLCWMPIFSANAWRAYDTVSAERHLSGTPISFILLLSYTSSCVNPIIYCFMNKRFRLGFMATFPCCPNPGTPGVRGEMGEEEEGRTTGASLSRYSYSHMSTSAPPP
The experiment in a line: Tested for the inhibition of [3H]pCCK-8 binding to Cholecystokinin type A receptor in pancreatic membranes of guinea-pig. Format: cell membranes.
The Ki is a measure of affinity in units of concentration, obtained from inhibition or displacement. High values mean weaker binding, low ones tighter binding. `CC(C)(C)OC(=O)N[C@@H](Cc1c[nH]c2ccccc12)C(=O)N[C@@H](Cc1ccccc1)C(=O)N[C@@H](CC(=O)O)C(=O)N[C@@H](Cc1cccc2ccccc12)C(N)=O` (Boc-WFD[1Nal]-NH2): the affinity, expressed as Ki, was 2400 nM.
`CC(C)(C)OC(=O)N[C@@H](Cc1c[nH]c2ccccc12)C(=O)N[C@H](C(=O)N[C@@H](CC(=O)O)C(=O)N[C@@H](Cc1cccc2ccccc12)C(N)=O)c1ccccc1` (Boc-W[Phg]D[1Nal]-NH2) yielded a Ki of 1100 nM.
The result for `CCCC[C@@H](NC(=O)CC(=O)N[C@@H](Cc1c[nH]c2ccccc12)C(=O)N(C)[C@@H](CCCC)C(=O)N[C@@H](CC(=O)O)C(=O)N[C@@H](Cc1ccccc1)C(N)=O)NC(=O)[C@H](Cc1ccc(CS(=O)(=O)O)cc1)NC(=O)OC(C)(C)C` reads 1100 nM; that for `CN(C)C(=O)[C@H](Cc1cccc2ccccc12)NC(=O)[C@H](CC(=O)O)NC(=O)[C@@H](NC(=O)[C@H](Cc1c[nH]c2ccccc12)NC(=O)OC(C)(C)C)c1ccccc1` (Boc-W[Phg]D[1Nal]-NMe2), 1000 nM.
